Measured values published in patent publication US7445803B2, “Chromium (III) alpha amino acid complexes” (priority 2002, dated 2008).
Like-named read-outs stand apart in the source and are kept apart here.

Assays:
[1] = pH of aqueous solution of the complex; type: physicochemical; conditions: 0.1 molar in water
Description: (§1) A 10 ml portion was diluted with 200 ml of a 0.1 molar solution of sodium bicarbonate. […] An additional 600 ml of 0.1 molar sodium bicarbonate solution was added.
(§2) A 10 ml portion was diluted with 200 ml of a 0.1 molar solution of sodium bicarbonate.
as §2

[2] = Stability on addition of 0.1 molar sodium bicarbonate (precipitate formation); type: physicochemical
Description: as §1, §2, §2

[3] = after oral administration; cited from earlier work
[4] = system: rat isolated adipose tissue; conditions: cited from earlier work
rat [5] = system: rat
Description: Fifty 6 weeks old rats were used in the study (25 females and 25 males). Their body weight ranged from 130 to 220 g for males and 120-190 g for females. The animals were housed in polycarbonate cages over dust-free sawdust bedding in groups of five. The cages were placed in an air-conditioned room at 22° C. and 55% relative humidity. Rats were fed pelleted complete diet ad libitum. Animals were fasted overnight before dosing and given food 3-4 hours after dosing. Animals given water ad libitum. Animals were assigned at random to one of five treatments. Two groups of five animals each, one group of males and one group of females were assigned to each treatment. The treatments were control, 250 mg/kg, 500 mg/kg, 1000 mg/kg and 2000 mg/kg doses. A solution of the compound in water was administered in a single oral dose by gastric gavage. Animals were maintained for a 14-day observation period after receiving the dose. Surviving animals were killed on day 14. The weight of animals were recorded immediately before treatment, twice weekly for the study period and at death.

[6] = system: periparturient dairy cows
Excerpt: The effects of supplementation with chromium in the form of chromium tri-L-methionine hydrochloride on performance of periparturient dairy cows were studied. Seventy-two cows were used to determine whether milk production and dry matter intake were affected by chromium tri-L-methionine hydrochloride supplementation of the diet during the periparturient period. Cows were fed either a diet high in nonforage fiber sources or high in non-fiber carbohydrates from day 21 before expected parturition until parturition and then fed a common lactating diet. Chromium tri-L-methionine hydrochloride was supplemented once daily via gelcap at doses of 0, 0.03, or 0.06 mg Cr/kg of metabolic body weight. Chromium supplementation began on day 21 before expected parturition and continued until day 28 postpartum. Cows were milked after calving according to established procedures. Feed intake was recorded daily for each cow throughout the experiment. Samples of the diet were obtained weekly and the dry matter contents were determined. Individual milk weights were recorded at each milking during the lactating phase of the experiment. Milk samples were taken from all milkings during one 24-hours period each week, composited based on the amount of milk produced at each milking, and analyzed for fat, protein, lactose, and total solids.

rats = conditions: cited from earlier work
[7] = system: rat skeletal muscle cultures; conditions: rat skeletal muscle cultures in vitro; cited from earlier work
[8] = system: Chinese hamster ovary cells; conditions: cited from earlier work
DNA = conditions: cited from earlier work
rat [9] = conditions: added to rat diet; cited from earlier work
Humans = conditions: dietary supplementation, males and females; cited from earlier work
[10] = cited from earlier work
[11] = 10 ml of 0.1 molar solution + 200 ml 0.1 molar sodium bicarbonate (20 molar equivalents)
[12] = additional 600 ml 0.1 molar sodium bicarbonate (80 molar equivalents in all)
[13] = slightly more than 2 equivalents of 0.1 molar sodium bicarbonate to a 0.1M solution

**Q.** For “Chromium (III) Tri-leucinate Hydrochloride [Example 2]”, which “pH of a 0.1 molar solution in water” value [1] is on record?
**A.** 3.996

**Q.** What about the “pH of the solution after sodium bicarbonate” value (from here on “pH of the solution”) [2, 11] of the same compound?
**A.** 7.987

**Q.** And the precipitate formation [2, 11]?
**A.** No precipitate was formed

**Q.** Which “absorption from the gastrointestinal tract” value [3] does the source give for CC(=O)/C=C(/C)[O-].CC(=O)/C=C(/C)[O-].CC(=O)/C=C(/C)[O-].[Cr+3] [Chromium Acetylacetonate] here?
**A.** rapidly absorbed

**Q.** For chromium dinicotinate, which insulin activity [4] is on record?
**A.** potentiated

**Q.** Which “pH of a 0.1 molar solution in water” value [1] does the source give for “Chromium (III) Tri-methionate Hydrochloride [Example 1]” here?
**A.** 4.078

**Q.** What about the body weight gain (rat [5]; 2000 mg/kg dose, 4000 folds the recommended dose) of the same compound?
**A.** slight decrease

**Q.** What about the “food consumption compared to control” value (rat [5]; 1000 and 2000 mg/kg doses) of the same compound?
**A.** dose related decrease

**Q.** What about the “gain in body weight” value (rat [5]; dose 2000 folds the recommended dose) of the same compound?
**A.** not associated with a decrease

**Q.** What about the toxicity in rats (rat [5]; doses used / high doses) of the same compound?
**A.** non-toxic

**Q.** And the “decrease in body weight gain” value (rat [5]; male rats, 2000 mg/kg single oral dose)?
**A.** 5%

**Q.** What about the “macroscopic abnormalities at necropsy” value (rat [5]; necropsied on day 14 after the oral dose) of the same compound?
**A.** no macroscopic abnormalities

**Q.** And the mortality (rat [5]; single oral dose 250-2000 mg/kg, 14-day observation)?
**A.** No animals died

**Q.** And the treatment-related clinical signs (rat [5]; single oral dose, any of the dose levels (250-2000 mg/kg))?
**A.** no treatment-related clinical signs

**Q.** What about the toxicity (rat [5]; single oral dose, dose levels 1000 folds the recommended dose in pigs) of the same compound?
**A.** did not induce any toxicity

**Q.** And the “pH of the solution” value [2, 11]?
**A.** 8.097

**Q.** And the precipitate formation [2, 11]?
**A.** No precipitate was formed

**Q.** What about the “pH of the solution” value [2, 12] of the same compound?
**A.** 8.354

**Q.** And the precipitate formation [2, 12]?
**A.** No precipitate was formed

**Q.** What about the “% Milk Fat” value ([6]; 0.03 mg/kg BW^.75) of the same compound?
**A.** 4.41%

**Q.** What about the “% Milk Lactose” value ([6]; 0.03 mg/kg BW^.75) of the same compound?
**A.** 4.69%

**Q.** And the “% Milk Protein” value ([6]; 0.03 mg/kg BW^.75)?
**A.** 3.37%

**Q.** What about the “% Milk Solids” value ([6]; 0.03 mg/kg BW^.75) of the same compound?
**A.** 13.39%

**Q.** And the “Milk Fat” value ([6]; 0.03 mg/kg BW^.75)?
**A.** 1.76 kg/day

**Q.** What about the “Milk Lactose” value ([6]; 0.03 mg/kg BW^.75) of the same compound?
**A.** 1.91 kg/day

**Q.** And the “Milk Production” value ([6]; 0.03 mg/kg BW^.75)?
**A.** 40.6 kg/day

**Q.** What about the “Milk Protein” value ([6]; 0.03 mg/kg BW^.75) of the same compound?
**A.** 1.33 kg/day

**Q.** And the “Milk Solids” value ([6]; 0.03 mg/kg BW^.75)?
**A.** 5.37 kg/day

**Q.** And the “Postpartum Dry Matter Intake” value ([6]; 0.03 mg/kg BW^.75)?
**A.** 18.9 kg/day

**Q.** And the “Prepartum Dry Matter Intake” value ([6]; 0.03 mg/kg BW^.75)?
**A.** 13.9 kg/day

**Q.** What about the “% Milk Fat” value ([6]; 0.06 mg/kg BW^.75) of the same compound?
**A.** 4.33%

**Q.** And the “% Milk Lactose” value ([6]; 0.06 mg/kg BW^.75)?
**A.** 4.61%

**Q.** What about the “% Milk Protein” value ([6]; 0.06 mg/kg BW^.75) of the same compound?
**A.** 3.15%

**Q.** What about the “% Milk Solids” value ([6]; 0.06 mg/kg BW^.75) of the same compound?
**A.** 13.03%

**Q.** What about the “Milk Fat” value ([6]; 0.06 mg/kg BW^.75) of the same compound?
**A.** 1.81 kg/day

**Q.** What about the “Milk Lactose” value ([6]; 0.06 mg/kg BW^.75) of the same compound?
**A.** 1.98 kg/day

**Q.** And the “Milk Production” value ([6]; 0.06 mg/kg BW^.75)?
**A.** 42.8 kg/day

**Q.** And the “Milk Protein” value ([6]; 0.06 mg/kg BW^.75)?
**A.** 1.31 kg/day

**Q.** What about the “Milk Solids” value ([6]; 0.06 mg/kg BW^.75) of the same compound?
**A.** 5.51 kg/day

**Q.** And the “Postpartum Dry Matter Intake” value ([6]; 0.06 mg/kg BW^.75)?
**A.** 19.4 kg/day

**Q.** What about the “Prepartum Dry Matter Intake” value ([6]; 0.06 mg/kg BW^.75) of the same compound?
**A.** 13.7 kg/day

**Q.** And the “effect on dry matter intake in cows” value ([6]; diet supplementation, 0.03 or 0.06 mg Cr/kg metabolic body weight)?
**A.** did not affect

**Q.** For [Cl][Cr]([Cl])[Cl] [chromium chloride, reference compound], which toxicity in rats (rats; rats) is on record?
**A.** lack of toxicity

**Q.** And the “pH of the mixture” value [2, 13]?
**A.** 4.356

**Q.** And the precipitate formation [2, 13]?
**A.** voluminous precipitate

**Q.** With chromium picolinate as the compound, how does the glucose uptake [7] read?
**A.** increased

**Q.** What about the chromosome damage [8] of the same compound?
**A.** produces chromosome damage

**Q.** And the DNA cleavage (DNA)?
**A.** cleaves DNA

**Q.** What about the glycation of hemoglobin (rat [9]) of the same compound?
**A.** prevented

**Q.** And the plasma glucose (rat [9])?
**A.** significant decrease

**Q.** And the lean body mass (Humans)?
**A.** significant increase

**Q.** What about the water solubility [10] of the same compound?
**A.** limited

**Q.** And the toxicity in rats (rats; rat, in vivo)?
**A.** lack of toxicity
